Oligonucleotides are written 5' to 3', each unit as a sugar letter and its base; * is a phosphorothioate linkage, no mark a phosphodiester; rarer units and linkages stand in square brackets, end groups in braces. Plain capitals give the bases only. d = 2'-deoxy (DNA); r = 2'-OH (RNA)
target: UBE2M; test: reporter assay of Huesken 2005; details: siRNA
Further: test concentration or dose not given here.

Point of comparison: “sense rArGrGrGrCrArArCrGrUrCrUrGrCrCrUrCrArAdTdT / antisense rUrUrGrArGrGrCrArGrArCrGrUrUrGrCrCrCrUdCdG”, normalised inhibition (eCFP-eYFP dual reporter) 79.5%. Against it:
- sense rArGrGrArCrUrGrGrArArGrCrCrArGrUrCrCrUdTdT / antisense rArGrGrArCrUrGrGrCrUrUrCrCrArGrUrCrCrUdCdT — lower, 54.1%
- sense rArGrGrArGrGrArGrGrArGrUrCrGrGrCrGrGrGdTdT / antisense rCrCrCrGrCrCrGrArCrUrCrCrUrCrCrUrCrCrUdTdC — lower, 41.7%
- sense rArGrGrCrCrGrCrArGrArGrGrUrCrCrUrGrCrAdTdT / antisense rUrGrCrArGrGrArCrCrUrCrUrGrCrGrGrCrCrUdCdC — lower, 65.4%
- sense rArGrGrCrGrUrCrGrGrCrGrGrCrGrCrArGrCrUdTdT / antisense rArGrCrUrGrCrGrCrCrGrCrCrGrArCrGrCrCrUdTdC — lower, 51.7%
- sense rArGrUrCrCrUrUrArCrGrArUrArArArCrUrCrCdTdT / antisense rGrGrArGrUrUrUrArUrCrGrUrArArGrGrArCrUdGdG — lower, 60.6%
- sense rArGrUrCrGrGrCrGrGrGrCrGrGrCrArCrCrArAdTdT / antisense rUrUrGrGrUrGrCrCrGrCrCrCrGrCrCrGrArCrUdCdC — lower, 73.6%
- sense rArGrUrGrUrGrArGrArCrArArUrGrGrUrCrUrAdTdT / antisense rUrArGrArCrCrArUrUrGrUrCrUrCrArCrArCrUdTdC — higher, 92.1%
- sense rArUrCrCrArGrArArGrGrArCrArUrArArArCrGdTdT / antisense rCrGrUrUrUrArUrGrUrCrCrUrUrCrUrGrGrArUdCdC — lower, 56.4%
- sense rArUrCrUrCrUrUrCrUrUrGrGrArGrCrCrCrArAdTdT / antisense rUrUrGrGrGrCrUrCrCrArArGrArArGrArGrArUdAdC — lower, 77.1%
- sense rArUrGrGrUrCrUrArUrCrArCrCrCrCrArArCrAdTdT / antisense rUrGrUrUrGrGrGrGrUrGrArUrArGrArCrCrArUdTdG — lower, 71.3%
- sense rCrArArCrCrCrCrGrArGrGrArCrCrCrArCrUrGdTdT / antisense rCrArGrUrGrGrGrUrCrCrUrCrGrGrGrGrUrUrGdGdG — lower, 62.8%
- sense rCrArArUrGrGrUrCrUrArUrCrArCrCrCrCrArAdTdT / antisense rUrUrGrGrGrGrUrGrArUrArGrArCrCrArUrUrGdTdC — higher, 86.1%
- sense rCrArCrCrCrCrArArCrArUrUrGrArCrCrUrCrGdTdT / antisense rCrGrArGrGrUrCrArArUrGrUrUrGrGrGrGrUrGdAdT — lower, 62.5%
- sense rCrArGrCrUrUrCrUrCrArGrArUrCrCrArGrArCdTdT / antisense rGrUrCrUrGrGrArUrCrUrGrArGrArArGrCrUrGdAdT — lower, 79.3%
- sense rCrArUrGrCrGrGrGrGrUrGrGrCrUrArCrArUrCdTdT / antisense rGrArUrGrUrArGrCrCrArCrCrCrCrGrCrArUrGdGdA — lower, 67.7%
- sense rCrCrGrCrArGrArGrGrUrCrCrUrGrCrArGrArAdTdT / antisense rUrUrCrUrGrCrArGrGrArCrCrUrCrUrGrCrGrGdCdC — lower, 67.1%
- sense rCrCrUrGrArUrGrArGrGrGrCrUrUrCrUrArCrAdTdT / antisense rUrGrUrArGrArArGrCrCrCrUrCrArUrCrArGrGdAdC — lower, 77.9%
- sense rCrGrArGrCrUrGrArArCrCrUrGrCrCrCrArArGdTdT / antisense rCrUrUrGrGrGrCrArGrGrUrUrCrArGrCrUrCrGdTdT — lower, 71.9%
- sense rCrGrGrCrGrGrCrGrCrArGrCrUrGrCrGrGrArUdTdT / antisense rArUrCrCrGrCrArGrCrUrGrCrGrCrCrGrCrCrGdAdC — lower, 69.9%

— the OligoGym collection
